These results are taken from patent US5869500A, “Pyridone compounds useful in treating Alzheimer's disease” (Hoffmann-La Roche Inc., priority 1996, dated 1999).

The subject of test [1] is Aβ production in HEK cells over-expressing Wild type β-APP. The experiment in a line: Aβ production inhibition, sandwich-ELISA in HEK cells which over-express Wild type β-APP (SE-WT). Conditions: Homo sapiens; for IC50: HEK293, based on the respective plateau of maximum inhibition; for Emax: HEK293, maximum inhibition plateau, read-out: SE-WT max. inhibition %. In kind it is cell-based, human. The procedure, abridged: (§1)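 HEK cells expressing recombinant human wild-type or mutated (SFAD) β-APP treated with compound for 24 to 48 hours at 37° C, 10% CO2. IC50 based on plateau of maximum inhibition.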
(In general: An ELISA detects its analyte on a solid surface through an enzyme-linked reagent.)

Test [2] concerns Aβ production in HEK cells over-expressing mutated β-APP (SFAD). The experiment in a line: Aβ production inhibition, sandwich-ELISA in HEK cells, over-expressed mutated β-APP (SE-SFAD). In kind it is cell-based, human. Conditions: Homo sapiens, HEK293, HEK cells; for IC50: based on the respective plateau of maximum inhibition; for Emax: maximum inhibition plateau, read-out: SE-SFAD max. inhibition %. The procedure, abridged: as §1

Each structure is given as a SMILES string. Structures can show the parent of a compound that is named as a salt.

Usually IC50 stands for the midpoint of a concentration-inhibition curve. Consider `O=C(OCCn1ccnc1)c1cc(-c2ccccc2)c(=O)n2ccc3ccsc3c12` [Compound 2, 2-Imidazol-1-yl-ethyl 7-oxo-8-phenyl-7H-thieno[2,3-a]quinolizine-10-carboxylate], for which the IC50 was determined as 1.2 µM in test [1] and 10 µM in test [2]. Moreover, the Emax was found to be 70% in test [1] and 50% in test [2].

Consider `CCOC(=O)CN1CCN(C(=O)c2cc(-c3ccccc3)c(=O)n3ccc4ccsc4c23)CC1` [Compound 16, Ethyl [4-(7-oxo-8-phenyl-7H-thieno[2,3-a]quinolizine-10-carbonyl)-piperazin-1-yl]-acetate methanesulphonate], for which, in test [1], 6 µM corresponded to half-maximal inhibition (IC50) and the Emax is 70%. Further, in test [2], the half-inhibitory concentration (IC50) came out at 3 µM and the Emax was 30%.

On to `CN(C)CCOC(=O)c1cc(-c2ccccc2)c(=O)n2ccc3ccsc3c12` [Compound 53, 2-Dimethylamino-ethyl 7-oxo-8-phenyl-7H-thieno[2,3-a]quinolizine-10-carboxylate hydrochloride], for which, in test [1], it took 8 µM to reach half-maximal inhibition (IC50) and the Emax is 100%. Moreover, in test [2], half-maximal inhibition (IC50) was put at 9.5 µM and the Emax came out at 80%.

Take `CC(=O)c1cc(-c2ccccc2)c(=O)n2ccc3ccsc3c12` [Compound 58, 10-Acetyl-8-phenyl-thieno[2,3-a]quinolizine-7-one]: in test [1], 0.2 µM corresponded to half-maximal inhibition (IC50) and the Emax was 40%. In test [2], 1 µM corresponded to half-maximal inhibition (IC50) and the Emax amounted to 60%.

Regarding `CC(C)OC1CCN(C(=O)c2cc(-c3ccccc3)c(=O)n3ccc4ccsc4c23)C1` (centres unmarked) [Compound 51, 10-(3-Isopropoxy-pyrrolidine-1-carbonyl)-8-phenyl-thieno[2,3-a]-quinolizin-7-one], in test [1], 24 µM corresponded to half-maximal inhibition (IC50) and the Emax amounted to 100%. For the same molecule, in test [2], the half-maximal inhibitory concentration (IC50) amounted to 60 µM and the Emax was determined as 100%.

Turning to `O=C(c1cc(-c2ccc(O)cc2)c(=O)n2ccc3ccsc3c12)N1CCC[C@@H]1CO` [Compound 44, 10-(2-(R)-Hydroxymethyl-pyrrolidine-1-carbonyl)-8-(4-hydroxyphenyl)-thieno[2,3-a]quinolizin-7-one], the IC50 in test [1] is 5 µM; in test [2] it was 6 µM. The Emax in test [1] and in test [2] was 50% each time.

Consider `COCCN(C(=O)c1cc(-c2ccccc2)c(=O)n2ccc3ccsc3c12)c1ccccc1` [Compound 23, 7-Oxo-8-phenyl-7H-thieno[2,3-a]quinolizine-10-carboxylic acid (2-methoxy-ethyl)phenyl-amide], for which, in test [1], the IC50 is 3.4 µM and the Emax came out at 100%. In test [2], the half-maximal inhibitory concentration (IC50) came to 6.7 µM and the Emax was 100%.

In the case of `COCCN(CCOC)C(=O)c1cc(-c2ccccc2)c(=O)n2ccc3ccsc3c12` [Compound 22, 7-Oxo-8-phenyl-7H-thieno[2,3-a]quinolizine-10-carboxylic acid bis-(2-methoxy-ethyl)-amide], the results for the IC50 in test [1] and in test [2] were 2.5 µM and 2 µM, respectively. For the same molecule, the Emax in test [1] and in test [2] was 80% each time.
